T/C data for 17 compounds are collected here from PubChem BioAssay AID330 (DTP/NCI, 2004).

“And” between values parts separate entries of the source, which are not always exact repeats. Identical values can stand only once. Inconclusive results and toxic doses are left out.

This experiment deals with P388 leukemia ip, CD2F1 mice, survival T/C. Nature of the experiment: NCI In Vivo Anticancer Drug Screen. Data for tumor model P388 Leukemia (intraperitoneal) in CD2F1 (CDF1) mice. The note with it: endpoint: median survival time, higher = longer survival. In outline: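 Mice carrying the transplanted tumor received test compound or vehicle. Survival was recorded in each group, and the value is the treated-group measurement divided by that of the vehicle-treated control group.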

The mark [1] stands for this setting: dose: 100.0 mg/kg/injection, schedule: Q01DX005 (ip), vehicle: saline.
Setting [2] is: dose: 200.0 mg/kg/injection, schedule: Q01DX005 (ip), vehicle: saline.
The mark [3] stands for this setting: dose: 50.0 mg/kg/injection, schedule: Q01DX009 (ip), vehicle: saline with Tween-80.
[4] abbreviates: dose: 100.0 mg/kg/injection, schedule: Q01DX009 (ip), vehicle: saline with Tween-80.
Setting [5] is: dose: 200.0 mg/kg/injection, schedule: Q01DX009 (ip), vehicle: saline with Tween-80.
The mark [6] stands for this setting: dose: 100.0 mg/kg/injection, schedule: Q04DX003 (ip), vehicle: saline with Tween-80.
Where [7] appears, read: dose: 50.0 mg/kg/injection, schedule: Q01DX009 (ip), vehicle: Klucel (hydroxypropylcellulose) (HPC).
The mark [8] stands for this setting: dose: 100.0 mg/kg/injection, schedule: Q01DX009 (ip), vehicle: Klucel (hydroxypropylcellulose) (HPC).
Where [9] appears, read: dose: 200.0 mg/kg/injection, schedule: Q01DX009 (ip), vehicle: Klucel (hydroxypropylcellulose) (HPC).
Where [10] appears, read: dose: 50.0 mg/kg/injection, schedule: Q01DX005 (ip), vehicle: saline with Tween-80.
Where [11] appears, read: dose: 100.0 mg/kg/injection, schedule: Q01DX005 (ip), vehicle: saline with Tween-80.
The mark [12] stands for this setting: dose: 200.0 mg/kg/injection, schedule: Q01DX005 (ip), vehicle: saline with Tween-80.
Where [13] appears, read: dose: 50.0 mg/kg/injection, schedule: Q01DX009 (ip), vehicle: saline.

For `NC(=O)c1csc(C2OC(CO)C(O)C2O)n1` (stereo unspecified), the T/C was 158 % of control (dose: 75.0 mg/kg/injection, schedule: Q01DX005 (ip), vehicle: saline); 155 % of control and 159 % of control and 161 % of control under setting [1]; 157 % of control (dose: 100.0 mg/kg/injection, schedule: Q01DX005 (ip), vehicle: water); 152 % of control and 158 % of control (dose: 150.0 mg/kg/injection, schedule: Q01DX005 (ip), vehicle: saline); 173 % of control and 174 % of control and 178 % of control under setting [2]; 171 % of control (dose: 200.0 mg/kg/injection, schedule: Q01DX005 (ip), vehicle: water). In addition, the T/C runs as follows: (dose: 300.0 mg/kg/injection, schedule: Q01DX005 (ip), vehicle: saline) 163 % of control and 177 % of control; (dose: 300.0 mg/kg/injection, schedule: Q01DX005 (ip), vehicle: water) 158 % of control; (dose: 300.0 mg/kg/injection, schedule: Q01DX009 (ip), vehicle: water) 193 % of control and 198 % of control; (dose: 400.0 mg/kg/injection, schedule: Q01DX005 (ip), vehicle: saline) 181 % of control and 187 % of control and 198 % of control; (dose: 400.0 mg/kg/injection, schedule: Q01DX005 (ip), vehicle: water) 164 % of control and 189 % of control; (dose: 400.0 mg/kg/injection, schedule: Q01DX009 (ip), vehicle: water) 201 % of control and 224 % of control. The T/C is 177 % of control (dose: 600.0 mg/kg/injection, schedule: Q01DX005 (ip), vehicle: saline); 169 % of control (dose: 600.0 mg/kg/injection, schedule: Q01DX005 (ip), vehicle: water); 234 % of control and 237 % of control (dose: 600.0 mg/kg/injection, schedule: Q01DX009 (ip), vehicle: water); 245 % of control and 86 % of control (dose: 700.0 mg/kg/injection, schedule: Q01DX009 (ip), vehicle: water); 117 % of control (dose: 750.0 mg/kg/injection, schedule: Q01DX009 (ip), vehicle: water); 217 % of control (dose: 800.0 mg/kg/injection, schedule: Q01DX005 (ip), vehicle: saline). The T/C (dose: 800.0 mg/kg/injection, schedule: Q01DX009 (ip), vehicle: water) was 99 % of control and 245 % of control.

For `COc1ccc(C2NC(=O)NC2=O)cc1` (stereo unspecified), the T/C (dose: 25.0 mg/kg/injection, schedule: Q01DX009 (ip), vehicle: saline with Tween-80) is 100 % of control; the T/C under setting [3] was 91 % of control; the T/C under setting [4] was 93 % of control; the T/C under setting [5] was 94 % of control.

Regarding `O=C(CC(=O)C(F)(F)C(F)(F)C(F)(F)F)c1csc2ccccc12`, the T/C under setting [6] is 109 % of control.

In the case of `CCCCCCC(=O)/C=C/c1ccc([N+](=O)[O-])cc1`, the T/C is 99 % of control under setting [3], 99 % of control under setting [4] and 92 % of control under setting [5].

Take `CCCCCOCCCCC`: the T/C reads like this: (dose: 25.0 mg/kg/injection, schedule: Q01DX005 (ip), vehicle: saline) 100 % of control; (dose: 50.0 mg/kg/injection, schedule: Q01DX005 (ip), vehicle: saline) 99 % of control; under setting [1], 95 % of control; under setting [2], 96 % of control.

Turning to `O=C(c1ccccc1)N1C=CN(C(=O)c2ccccc2)C(c2ccccc2)C1c1ccccc1` (stereo unspecified), the T/C runs as follows: (dose: 60.0 mg/kg/injection, schedule: Q01DX005 (ip), vehicle: Klucel (hydroxypropylcellulose) (HPC)) 88 % of control; (dose: 120.0 mg/kg/injection, schedule: Q01DX005 (ip), vehicle: Klucel (hydroxypropylcellulose) (HPC)) 90 % of control.

Regarding `Clc1ccc(-c2nnc(-c3ccccc3)o2)cc1Cl`, the T/C under setting [7] was 112 % of control; the T/C under setting [8] was 105 % of control; the T/C under setting [9] was 112 % of control; the T/C (dose: 400.0 mg/kg/injection, schedule: Q01DX009 (ip), vehicle: Klucel (hydroxypropylcellulose) (HPC)) is 100 % of control.

For the compound `C1CN(/N=N/c2nn[nH]n2)CCO1`, the T/C is 117 % of control under setting [7], 117 % of control under setting [8] and 106 % of control under setting [9].

In the case of `COc1cc2c(c(OC)c1OC)-c1ccc(SC)c(=O)cc1[C@@H](NC(=O)NCCCl)CC2`, the T/C is, setting by setting: (dose: 1.5 mg/kg/injection, schedule: Q01DX009 (ip), vehicle: water) 110 % of control; (dose: 6.0 mg/kg/injection, schedule: Q01DX009 (ip), vehicle: water) 150 % of control; (dose: 12.0 mg/kg/injection, schedule: Q01DX009 (ip), vehicle: water) 155 % of control; (dose: 13.5 mg/kg/injection, schedule: Q01DX009 (ip), vehicle: water) 150 % of control and 163 % of control.

As for `COc1cccc2c1C(=O)c1c(O)c3c(c(O)c1C2=O)C[C@@](O)(C(C)O)C[C@@H]3OC1CC(N2CCOCC2C#N)C(O)C(C)O1` (stereo partly specified), the T/C (dose: 0.03 mg/kg/injection, schedule: Q04DX003 (ip), vehicle: water) was 120 % of control; the T/C (dose: 0.1 mg/kg/injection, schedule: Q04DX003 (ip), vehicle: water) was 166 % of control; the T/C (dose: 12.5 micrograms/kg/injection, schedule: Q04DX003 (ip), vehicle: water) was 107 % of control; the T/C (dose: 25.0 micrograms/kg/injection, schedule: Q04DX003 (ip), vehicle: water) is 101 % of control; the T/C (dose: 50.0 micrograms/kg/injection, schedule: Q04DX003 (ip), vehicle: water) was 106 % of control; the T/C (dose: 100.0 micrograms/kg/injection, schedule: Q04DX003 (ip), vehicle: water) is 120 % of control.

On to `CC(CC(=O)c1ccccc1)=NCCCCN=C(C)CC(=O)c1ccccc1`, for which the T/C is, setting by setting: (dose: 25.0 mg/kg/injection, schedule: Q04DX002 (ip), vehicle: saline with Tween-80) 104 % of control; (dose: 25.0 mg/kg/injection, schedule: Q04DX003 (ip), vehicle: saline with Tween-80) 101 % of control; under setting [10], 91 % of control; (dose: 50.0 mg/kg/injection, schedule: Q04DX002 (ip), vehicle: saline with Tween-80) 96 % of control; (dose: 50.0 mg/kg/injection, schedule: Q04DX003 (ip), vehicle: saline with Tween-80) 95 % of control; under setting [11], 95 % of control. Moreover, the T/C runs as follows: (dose: 100.0 mg/kg/injection, schedule: Q04DX002 (ip), vehicle: saline with Tween-80) 105 % of control; under setting [6], 92 % of control; under setting [12], 88 % of control; (dose: 200.0 mg/kg/injection, schedule: Q04DX002 (ip), vehicle: saline with Tween-80) 98 % of control.

Consider `CCN(CC)Cc1cc(Nc2cc(Cl)c3ccc(N(C)C)cc3n2)ccc1O`, for which the T/C is, setting by setting: (dose: 12.5 mg/kg/injection, schedule: Q01DX009 (ip), vehicle: saline) 110 % of control; (dose: 25.0 mg/kg/injection, schedule: Q01DX009 (ip), vehicle: saline) 110 % of control; under setting [13], 109 % of control and 110 % of control.

In the case of `CCOc1ccc2c(c1)[n+](=O)c1ccc(Cl)cc1n2[O-]`, the T/C was 104 % of control and 111 % of control and 118 % of control under setting [10]; 104 % of control and 116 % of control and 118 % of control under setting [11]; 112 % of control under setting [12].

With `CCCCCCCCCCCc1n(Cc2ccccc2)c2ccccc2[n+]1C`, the T/C reads like this: (dose: 0.25 mg/kg/injection, schedule: Q01DX009 (ip), vehicle: saline sonified) 104 % of control; (dose: 0.5 mg/kg/injection, schedule: Q01DX009 (ip), vehicle: saline sonified) 109 % of control.

For `O=C(CC(c1ccccc1)C(C(=O)O)c1ccc(Br)cc1)c1ccccc1` (stereo unspecified), the T/C by setting is: (dose: 12.5 mg/kg/injection, schedule: Q01DX005 (ip), vehicle: Klucel (hydroxypropylcellulose) (HPC)) 100 % of control; (dose: 25.0 mg/kg/injection, schedule: Q01DX005 (ip), vehicle: Klucel (hydroxypropylcellulose) (HPC)) 90 % of control; (dose: 50.0 mg/kg/injection, schedule: Q01DX005 (ip), vehicle: Klucel (hydroxypropylcellulose) (HPC)) 89 % of control.

On to `O=C(O)C(=O)O.O=C([O-])C(=O)O.O=C([O-])C(=O)O.[Fe+3].[K+]`, for which the T/C runs as follows: (dose: 30.0 mg/kg/injection, schedule: Q01DX005 (ip), vehicle: saline) 100 % of control; (dose: 60.0 mg/kg/injection, schedule: Q01DX005 (ip), vehicle: saline) 99 % of control.

Take `Nc1nccc(C(=O)c2ccccc2O)n1`: the T/C under setting [13] was 98 % of control; the T/C (dose: 100.0 mg/kg/injection, schedule: Q01DX009 (ip), vehicle: saline) was 95 % of control; the T/C (dose: 200.0 mg/kg/injection, schedule: Q01DX009 (ip), vehicle: saline) was 99 % of control.
